Results published in patent US20240199626A1, “COMPOUNDS WITH IMPROVED CARDIAC SAFETY FOR THE TREATMENT OF CANCER AND NEURODEGENERATIVE DISORDERS” (priority 2021, published 2024).
Like-named read-outs stand apart in the source and are kept apart here.

Columns and labels:
K-562 cells = assay: Cell viability / growth inhibition (AlamarBlue), K-562; type: cell-based; conditions: Homo sapiens
Protocol: (§1) K562 and K562-T315I: The Leukemia cell lines K562 were purchased and maintained as recommended by ATCC (Manassas, VA, USA). Briefly, K562 cells were cultured in suspension in RPMI1640 (ThermoFisher Scientific, USA) supplemented with 10% fetal bovine serum and Pen/Strep/L-Glutamine. […] Briefly, one million K562 cells were seeded in 6-well plates and transfected with Lipofectamine 2000 and 1 μg of CRISPR/Cas9 vector (pSpCas9(BB)-2A-GFP) incorporating the guide sequence ([…]), and Lipofectamine RNAiMax and 4 μg of ssDNA donors (1ug of each donor, Supplementary Table 1) for each well of a 6-well plate.
(§2) The effects of the compounds on cell viability were evaluated using the AlamarBlue assay using the NCI60 methodology.^57 Cells were harvested and plated in 384-well plates (Greiner μClear) at a concentration of 1250 cells/well in 40 μL, and incubated for 24 h at 37° C. The next day, test compounds were added to the cells as a 2×40μL solution, and incubated for 48 h at 37° C.

[1] = tested on: K-562-T315I cells (K-562 cells expressing BCR-ABL^T315I); assay: Cell viability / growth inhibition (AlamarBlue), K-562-T315I; type: cell-based; conditions: Homo sapiens, K562, read-out: Cell Inhibition IC50 K-562-T315I
Protocol: as §1, §2

hiPSC-CMs = assay: Cardiotoxicity assay in hiPSC-CMs (voltage transients, arrhythmia, contractility)
Protocol: iPSC-CMs: Human fibroblasts were reprogrammed to induced pluripotent stem cells (iPSCs) using Sendai viral vectors. All protocols were approved by the Stanford University Institutional Review Board. The obtained hiPSC clones were cultured in E8 cell culture media (Life Technologies) in plates coated growth factor-reduced Matrigel (Corning) until at least passage 20 before differentiation. hiPSC cells were differentiated into cardiomyocytes (CMs) utilizing a chemically defined cardiomyocyte differentiation protocol^55 and fatty acid rich maturation protocol.^56
hiPSC-CMs were plated on Matrigel coated 384-well plates at 20,000 cells per well (Greiner μClear) in 50 μl cardiomyocyte media (RMPI, B27) supplemented with 10% knock-out replacement serum. The subsequent day an additional 50 μl of media was added and cells were grown for a minimum of 5 days prior to analysis. Action potential kinetics and contractility was measured on the same cells sequentially. First, action potential kinetics were recorded using the protocol as established by Mckeithan et al.^58 Briefly, the cells were washed 5 times with FluoroBrite, loaded with VF2.1.CI dye for 50 min at 37° C., and washed again 5 times with FluoroBrite. Voltage time series were acquired at a frequency of 33 Hz for a duration of 10 s on the IC200 Kinetic Imaging Platform (Vala Sciences). […] The resulting recordings were subsequently analyzed using Vala Sciences and custom software, action potential kinetics, action potential durations and rates,^58 or contractile activity parameters (peak divergence, area under the curve) were used as measures of cardiotoxicity.^59

[2] = Serum cardiac troponin levels in treated mice; conditions: 30 mg/kg daily by oral gavage; indication of cardiac damage
HEK cells = assay: HEK cell growth inhibition
[3] = K562, Table 5, ± SD, read-out: Cell Inhibition IC50 K562

Cc1cn(-c2cc(NC(=O)c3ccc(C)c(Nc4nccc(-c5cccnc5)n4)c3)cc(C(F)(F)F)c2)cn1 [Nilotinib]
IC50 (K-562 cells; [3]): 26 nM | IC50 [1]: > 10000 nM | Cardiotoxicity (overall maximum toxic dose) (hiPSC-CMs; Table 5): 1.12 µM

C#Cc1cc(C(=O)Nc2ccc(CN3CCN(C)CC3)c(C(F)(F)F)c2)ccc1OC [Compound 29, 3-ethynyl-4-methoxy-N-(4-((4-methylpiperazin-1-yl)methyl)-3-(trifluoromethyl)phenyl)benzamide]
concentration at which cardiotoxicity was observed / cardiac-safe up to (hiPSC-CMs): 1340 nM | Cardiotoxicity (overall maximum toxic dose) (hiPSC-CMs; Table 4): 1.34 µM

Cc1nc(Nc2ncc(C(=O)Nc3c(C)cccc3Cl)s2)cc(N2CCN(CCO)CC2)n1 [Dasatinib]
IC50 (K-562 cells; [3]): 0.4 nM | Cardiotoxicity (overall maximum toxic dose) (hiPSC-CMs; Table 5): >10 µM

O=C(Nc1ccc(OC(F)(F)Cl)cc1)c1cnc(N2CC[C@@H](O)C2)c(-c2ccn[nH]2)c1 [Asciminib]
Cardiotoxicity (overall maximum toxic dose) (hiPSC-CMs; Table 5): 4.81 µM

Cc1ccc(C(=O)Nc2ccc(CN3CCN(C)CC3)c(C(F)(F)F)c2)cc1C#Cc1cnc2cccnn12 [Ponatinib]
serum cardiac troponin levels [2]: increased troponin levels | inhibition of growth of healthy HEK cells at (HEK cells): 1.1 µM | IC50 (K-562 cells; K562, read-out: Cell Inhibition IC50 K562): 0.5 nM | effect on cardiomyocyte contractility (peak contraction amplitude) (hiPSC-CMs; FIGS. 3D, 3E, hiPSC-CMs from two healthy donors): potently suppresses cardiomyocyte contractility | Cardiotoxicity (overall maximum toxic dose) (hiPSC-CMs; Table 5): 0.47 µM

C#Cc1cc(C(=O)Nc2ccc(CN3CCN(C)CC3)c(C(F)(F)F)c2)ccc1C [Compound 19, 3-ethynyl-4-methyl-N-(4-((4-methylpiperazin-1-yl)methyl)-3-(trifluoromethyl)phenyl) benzamide]
Cardiotoxicity (overall maximum toxic dose) (hiPSC-CMs; Table 4): 1.13 µM

Cc1ccc(C(=O)N2CCN(C)CC2)cc1C#Cc1cnc2cccnn12 [Compound 10a, (3-(imidazo[1,2-b]pyridazin-3-ylethynyl)-4-methylphenyl)(4-methylpiperazin-1-yl)methanone]
Cardiotoxicity (overall maximum toxic dose) (hiPSC-CMs; Table 3): >10 µM

C#Cc1cc(C(=O)Nc2cc(-n3cnc(C)c3)cc(C(F)(F)F)c2)ccc1C [Compound 26, 3-ethynyl-4-methyl-N-(3-(4-methyl-1H-imidazol-1-yl)-5-(trifluoromethyl)phenyl)benzamide]
Cardiotoxicity (overall maximum toxic dose) (hiPSC-CMs; Table 4): >10 µM

Cc1ccc(C(=O)Nc2ccc(CN3CCN(C)CC3)c(C(F)(F)F)c2)cc1 [Compound 21a, 4-methyl-N-(4-((4-methylpiperazin-1-yl)methyl)-3-(trifluoromethyl)phenyl)benzamide]
concentration at which cardiotoxicity was observed / cardiac-safe up to (hiPSC-CMs): 1450 nM | Cardiotoxicity (overall maximum toxic dose) (hiPSC-CMs; Table 4): 1.45 µM

Cc1nccc(Nc2ncc(C(=O)Nc3c(C)cccc3Cl)s2)n1 [Compound 3b, N-(2-chloro-6-methylphenyl)-2-((2-methylpyrimidin-4-yl)amino) thiazole-5-carboxamide]
Cardiotoxicity (overall maximum toxic dose) (hiPSC-CMs; Table 1): >10 µM
